Here are results for 1 compound from patent US10479792B2, “Compounds” (GlaxoSmithKline Intellectual Property Development Limited, priority 2015, dated 2019).

One series has as its system THP-1 cells. Description: Intramacrophage Leishmania donovani assay (Assay 1), THP-1 cell count (cytotoxicity readout). The conditions noted are these: human, 96 h incubation, read-out: cytotoxicity against THP-1 cells, pEC50 (converted). The series is classed as cell-based. As to the method:
Assay 1. Intramacrophage Leishmania donovani Assay
The intramacrophage Leishmania assay was performed using a modified version of the method described in De Rycker et al. (Antimicrob Agents Chemother. 2013 July; 57(7):2913-22. Comparison of a high-throughput high-content intracellular Leishmania donovani assay with an axenic amastigote assay. De Rycker M, Hallyburton I, Thomas J, Campbell L, Wyllie S, Joshi D, Cameron S, Gilbert I H, Wyatt P G, Frearson J A, Fairlamb A H, Gray D W.). Procedure: 350 nl of compound was pre-dispensed into 384 well sterile intermediary plates. For single point screening, amphotericin B was added to all wells of column 24 as a positive control (final concentration 2 μM) and DMSO to column 23. For potency determinations, ten-point, one in three dilution curves were created with the highest concentration being 50 μM and on each plate a control curve of amphotericin B was included. Controls were as follows: columns 11 and 12: DMSO, columns 23 and 24: amphotericin B (final concentration 2 μM). To the intermediary plates, 35 μl of THP-1 media was added and plates were shaken for >5 min to ensure complete mixing. […] For each well, i) THP-1 cell count (cytotoxicity readout) and ii) average number of amastigotes per cell (potency readout) were calculated, both in terms of pEC50 values.

Another series concerns Trypanosoma cruzi. Nature of the series: Trypanosoma cruzi intracellular assay (Assay 2). The series is classed as cell-based. The note with it: infected H9C2 rat cardiomyocytes, 72 h incubation, read-out: pEC50 value against Trypanosoma cruzi (converted). As to the method: Compounds were dispensed into black 384-well assay plates (Greiner) by acoustic dispensing (LabCyte ECHO). For potency determinations, eleven-point, one in three dilution curves were generated, with a top concentration of 50 μM. H9C2 rat cardiomyocytes cells were dispensed in T225 tissue culture flasks and after 4 hours they were infected during 18 hours with T. cruzi trypomastigotes in the same T225 tissue culture flasks at a multiplicity of infection of 1. Next, any remaining free trypomastigotes were washed away with PBS and the infected H9C2 cells were harvested by trypsinisation. The infected H9C2 cells were then plated into 384-well plates containing the compounds to be tested, at 2500 cells per well in DMEM media with 2% FBS, 1% Penicillin/Streptomicin, 2 mM L-Glutamine, 1 mM Na Pyruvate and 25 mM HEPES. After 72 h incubation at 37° C. in presence of 5% CO2, the plates were fixed and stained with 4% formaldehyde and 2 μM Draq5 for 3 hours at room temperature. The plates were imaged on a Perkin Elmer Opera high-content imaging system using a 20× air objective. Images were analyzed using the Acapella building blocks system (Perkin Elmer). The image analysis algorithm first identified the H9C2 nuclei followed by demarcation of the cytoplasm and identification of intracellular amastigotes. This algorithm reported mean number of parasites per H9C2 cell, the percentage of infected H9C2 cells and the total number of H9C2 cells.

Another series relates to Trypanosoma brucei. Description: Trypanosoma brucei cell growth inhibition assay (Assay 3). The note with it: 69 h + 4 h resazurin, read-out: pEC50 value against Trypanosoma brucei (converted). The format is cell-based, T. b. brucei, BSF427, VSG118. As to the method: Assay 3. Trypanosoma brucei Cell Growth Inhibition Assay
Measurement of the ability of the compounds to inhibit trypanosome (T. b. brucei, BSF427, VSG118) cell growth was performed using a modification of the cell viability assay previously described by Raz et al. (Raz B.; Iten M.; Grether-Buhler Y.; Kaminski R.; Brun R. The Alamar Blue assay to determine drug sensitivity of African trypanosomes (T. b. rhodesiense and T. b. gambiense) in vitro. Acta Trop. 1997, 68, 139-147). Compounds were dissolved in DMSO at a top concentration of 10 mM and serially diluted in half log steps to achieve a range of final assay concentrations of 50 μM to 0.5 nM. Compound at each concentration (200-fold final) was added to clear 96-well tissue culture plates in a volume of 1 μL. […] Plates were then read on a BioTek flx800 fluorescent plate reader, and percentage inhibition was compared to the maximum and minimum assay controls. Concentration effect curves were fitted using nonlinear regression using XLFit 4.2 and EC50 values determined.
(In general: Alamar Blue is a resazurin reagent that responds to reducing activity.)

Molecules are shown by their SMILES.

Regarding `O=C(Nc1ccc(F)c(-c2ccn3c(N4CCOCC4)cnc3n2)c1)N1CCCC1` [Example 4, N-(4-fluoro-3-(3-morpholinoimidazo[1,2-a]pyrimidin-7-yl)phenyl)pyrrolidine-1-carboxamide], the EC50 at 96 h with THP-1 cells is greater than 50.1 µM. Moreover, the EC50 with Trypanosoma cruzi is 39.8 nM; in the series on Trypanosoma brucei it was 10 nM.
